Laboratory results reported in patent US6676950B2, “Neurokinin receptor antagonists and methods of use thereof for inhibiting HIV infection” (The Children's Hospital of Philadelphia, priority 2001, dated 2004).

How the values were obtained:
HIV Bal strain = assay: HIV RT activity in culture supernatants of HIV Bal strain-infected MDM; type: cell-based, HIV-1; details: for HIV RT activity increased: MDM, HIV Bal
Experimental: The cells were also incubated with SP and/or anti-SP antibody. In this case, SP was incubated with (1:1000 dilution in 10% FCS DMEM) or without anti-SP antibody at room temperature for 10 min and then the mixture was added to the cell cultures for 2 h. When the cells were treated with the combination of CP-96,345 and SP, or CP-96,345, SP and anti-SP antibody, CP-96,345 was incubated with the cell culture for 10 min and then SP was added to the MDM or CP-96,345, SP and anti-SP (1:1000 in 10% FCS DMEM) were incubated for 10 min at room temperature and the mixture was incubated with the MDM for 2 h before infection with HIV. Untreated MDM served as controls. The cells were treated prior to, during, and throughout the infection.
HIV Infection: After 2 h incubation with or without the reagents described above, the cells were infected with equal amounts of cell-free HIV based on p24 antigen content (20 ng/10^6 cells) overnight, and then washed to remove unbound virus. Fresh media containing SP and/or CP-96,345 or anti-SP antibody were added to the MDM as described above. The culture media and the reagents were replaced twice weekly. The culture supernatants were harvested for HIV reverse transcriptase (RT) activity determinations. After HIV infection, the MDM were incubated for 8 to 12 days. At the termination of the experiments, cellular RNA was extracted for assessment of HIV gag gene expression using RT-PCR or real time RT-PCR assays.
The HIV RT activity assay was carried out based on the technique of Willey et al. (30) with modification (22).

CCR5 = assay: Flow cytometry of CCR5 receptor expression on MDM; type: cell-based, human; details: incubated overnight (24 h); direct immunofluorescence
Experimental: The cells were removed from the culture plate and then resuspended in 100 μl of phosphate-buffered saline (PBS). After incubation with 20 μl of either anti-CCR5-FITC or anti-CXCR4-FITC or anti-CD4-FITC or anti-CD14-FITC for 45 min at 4° C., the cells were washed twice with PBS and fixed with 1% paraformaldehyde in PBS. Fluorescein-conjugated control antibodies were isotype-matched IgG. Fluorescence was analyzed on an EPICS-Elite flow cytometer (Beckman-Coulter Electronics, Hialeah, Fla.).

HIV LTR promoter = assay: HIV LTR-driven CAT activity assay in U38 cells; type: cell-based
Source text: ACH-2 and U38 cell lines (25, 26) were obtained from the NIH AIDS Reagent Program. DNA extracted from ACH-2 cells was used as a positive standard for HIV DNA PCR as previously reported (27). The U38 cell line contains stably integrated, silent copies of the HIV LTR (long terminal repeat) promoter linked to a CAT (chloramphenicol acetyltransferase) gene and was used to study the effect of SP and/or CP-96,345 and R-113281 on the activation of HIV LTR promoter.
Chloramphenicol acetyltransferase (CAT) activity assay: U38 cells (2×10^6 cells) were incubated with different concentrations of SP and/or CP-96,345 or R-113281 for 48 h. Untreated U38 cells were used as a background control. Cellular proteins were extracted using 1X Reporter Lysis Bufffer (Promega Corp., Madison, Wis.). The lysates were incubated with a mixture containing 0.15 μCi of ^14C-labeled chloramphenicol (DuPont Inc., Boston, Mass.) and 200 μg/ml of n-Butyryl CoA (Promega Corp., Madison, Wis.) in a total volume of 125 μl at 37° C. for 3 h. The acetylated forms of chloramphenicol were extracted with xylene (Aldrich Chemical Company, Milwaukee, Wis.). CAT activity of each sample was quantified using a liquid-scintillation counter (Packard Instrument Company, Downers Grove, Ill.). The results were expressed as the ratio of CAT activity (CPM) of the SP and/or CP-96,345-treated or R-113281-treated U38 to that of the background control.

Molecule | viral replication as determined by HIV RT activity (HIV Bal strain; 10^−7M, 8 days after infection, vs HIV infection control) | CCR5 receptor expression on MDM (percentage positive cells) (CCR5) | HIV RT activity increased (HIV Bal strain; SP 10^−6M, 12 days after infection) | HIV RT activity increased (HIV Bal strain; SP 10^−8M, 12 days after infection) | HIV RT activity increased (HIV Bal strain; SP 10^−10M, 12 days after infection) | HIV replication in MDM (HIV RT activity and HIV gag mRNA levels) (HIV Bal strain; SP alone 10^−6M, 12 days after infection) | HIV LTR-driven CAT activity (HIV LTR promoter; SP 10^−10 to 10^−6M, 48 h, P<0.05 vs untreated control cells) | HIV LTR-driven CAT activity (HIV LTR promoter; SP (10^−5M), 48 hours)
COc1ccccc1CN[C@H]1C2CCN(CC2)[C@H]1C(c1ccccc1)c1ccccc1 [CP-96,344] | did not have the effect | did not affect | – | – | – | – | – | –
Substance P [SP] | – | – | 58% | 40% | 14% | enhanced HIV replication | significantly increased | significantly increases
